In ChEMBL document CHEMBL1151627, “Antineoplastic agents, 99. Amaryllis belladonna” (1984):
Converted amounts (≈) assume the structure as drawn. The source made the active and inactive calls. No cut-off for these calls is given here.

Assays:
P388 [1] = assay: Cytotoxicity against mouse P388 cells; format: functional; conditions: read-out: ED50 (the source's name)
P388 [2] = assay: In vivo antitumor activity against mouse P388 cells at 5 to 200 mg/kg; format: functional, organism-based
P388 [3] = assay: In vivo antitumor activity against mouse P388 cells at 1.25 to 10 mg/kg; format: functional, organism-based
P388 [4] = assay: In vivo antitumor activity against mouse P388 cells at 20 mg/kg; format: functional
P388 [5] = assay: In vivo antitumor activity against mouse P388 cells at 10 mg/kg; format: functional
P388 [6] = assay: In vivo antitumor activity against mouse P388 cells at 75 mg/kg; format: functional

CC(=O)O[C@@H]1CC=C2CCN3Cc4cc5c(cc4[C@H]1[C@@H]23)OCO5 [ACETYLCARANINE]
EC50 (P388 [1]): 0.23 µg/mL (≈ 0.734 µM)
Activity (P388 [2]): inactive

COc1c2c(cc3c1OCO3)[C@]13C=C[C@H](OC)C[C@H]1N(C2)C[C@@H]3O [AMBELLINE]
EC50 (P388 [1]): 1.6 µg/mL (≈ 4.83 µM)
Activity (P388 [3]): inactive

[Cl-].c1cc2c3c(c1)c1cc4c(cc1c[n+]3CC2)OCO4 [ANHYDROLYCORINIUM CHLORIDE]
T/C (P388 [4]): 169%
T/C (P388 [5]): 164%

O[C@H]1[C@H]2c3cc4c(cc3CN3CCC(=C[C@@H]1O)[C@H]23)OCO4 [LYCORINE]
T/C (P388 [6]): 135%
